Test results: ChEMBL document CHEMBL1151757, “Synthesis, radiosynthesis, and biological evaluation of fluorine-18-labeled 2beta-carbo(fluoroalkoxy)-3beta-(3'-((Z)-2-haloethenyl)phenyl)nortropanes: candidate radioligands for in vivo imaging of the serotonin transporter with positron emission tomography” (J Med Chem, 2008)

Legend:
[1] = Drug uptake in awake rhesus monkey brain caudate after 10.5 mins postinjection; assay type: ADME, organism-based, Macaca mulatta, Caudate nucleus; details: in vivo, 0.175 h
[2] = Drug uptake in awake rhesus monkey brain midbrain after 55 mins postinjection; assay type: ADME, organism-based, Macaca mulatta; details: in vivo
[3] = Drug uptake in awake rhesus monkey brain caudate after 85 mins postinjection; assay type: ADME, organism-based, Macaca mulatta, Caudate nucleus; details: in vivo
Pons [4] = test: Drug uptake in anesthetized cynomolgus monkey brain pons after 207.5 mins postinjection; assay type: ADME, organism-based, Macaca fascicularis; details: in vivo
Midbrain [5] = test: Drug uptake in anesthetized cynomolgus monkey brain midbrain after 202.5 mins postinjection; assay type: ADME, organism-based, Macaca fascicularis; details: in vivo, 3.375 h
Pons [6] = test: Drug uptake in anesthetized cynomolgus monkey brain pons after 187.5 mins postinjection; assay type: ADME, organism-based, Macaca fascicularis; details: in vivo, 3.125 h
[7] = Drug uptake in awake rhesus monkey brain caudate after 55 mins postinjection; assay type: ADME, organism-based, Macaca mulatta, Caudate nucleus; details: in vivo
[8] = Drug uptake in awake rhesus monkey brain medulla after 115 mins postinjection; assay type: ADME, organism-based, Macaca mulatta; details: in vivo
[9] = Drug uptake in anesthetized cynomolgus monkey brain cerebellum after 182.5 mins postinjection; assay type: ADME, organism-based, Macaca fascicularis; details: in vivo
[10] = Drug uptake in awake rhesus monkey brain medulla after 85 mins postinjection; assay type: ADME, organism-based, Macaca mulatta; details: in vivo
[11] = Drug uptake in awake rhesus monkey brain thalamus after 65 mins postinjection; assay type: ADME, organism-based, Macaca mulatta; details: in vivo
Thalamus [12] = test: Drug uptake in anesthetized cynomolgus monkey brain thalamus after 187.5 mins postinjection; assay type: ADME, organism-based, Macaca fascicularis; details: in vivo, 3.125 h
Caudate [13] = test: Drug uptake in anesthetized cynomolgus monkey brain caudate after 182.5 mins postinjection; assay type: ADME, organism-based, Macaca fascicularis, Caudate nucleus; details: in vivo
[14] = Drug uptake in awake rhesus monkey brain frontal lobe after 25 mins postinjection; assay type: ADME, organism-based, Macaca mulatta; details: in vivo
[15] = Drug uptake in anesthetized cynomolgus monkey brain occipital lobe after 197.5 mins postinjection; assay type: ADME, organism-based, Macaca fascicularis; details: in vivo
[16] = Drug uptake in anesthetized cynomolgus monkey brain cerebellum after 202.5 mins postinjection; assay type: ADME, organism-based, Macaca fascicularis; details: in vivo, 3.375 h
[17] = Drug uptake in awake rhesus monkey brain caudate after 4.5 mins postinjection; assay type: ADME, organism-based, Macaca mulatta, Caudate nucleus; details: in vivo, 0.075 h
[18] = Drug uptake in awake rhesus monkey brain cerebellum after 45 mins postinjection; assay type: ADME, organism-based, Macaca mulatta; details: in vivo, 0.75 h
Pons [19] = test: Drug uptake in anesthetized cynomolgus monkey brain pons after 202.5 mins postinjection; assay type: ADME, organism-based, Macaca fascicularis; details: in vivo, 3.375 h
[20] = Drug uptake in awake rhesus monkey brain pons after 75 mins postinjection; assay type: ADME, organism-based, Macaca mulatta; details: in vivo, 1.25 h
[21] = Drug uptake in awake rhesus monkey brain midbrain after 7.5 mins postinjection; assay type: ADME, organism-based, Macaca mulatta; details: in vivo, 0.125 h
[22] = Drug uptake in awake rhesus monkey brain cerebellum after 25 mins postinjection; assay type: ADME, organism-based, Macaca mulatta; details: in vivo
[23] = Drug uptake in awake rhesus monkey brain thalamus after 95 mins postinjection; assay type: ADME, organism-based, Macaca mulatta; details: in vivo
[24] = Drug uptake in awake rhesus monkey brain medulla after 95 mins postinjection; assay type: ADME, organism-based, Macaca mulatta; details: in vivo
[25] = Ratio of drug uptake in frontal lobe to cerebellum in awake rhesus monkey after 35 mins postinjection; assay type: ADME, organism-based, Macaca mulatta; details: in vivo
[26] = Drug uptake in awake rhesus monkey brain frontal lobe after 13.5 mins postinjection; assay type: ADME, organism-based, Macaca mulatta; details: in vivo, 0.225 h
Thalamus [27] = test: Drug uptake in anesthetized cynomolgus monkey brain thalamus after 182.5 mins postinjection; assay type: ADME, organism-based, Macaca fascicularis; details: in vivo
[28] = Drug uptake in awake rhesus monkey brain medulla after 55 mins postinjection; assay type: ADME, organism-based, Macaca mulatta; details: in vivo
[29] = Ratio of drug uptake in pons to cerebellum in awake rhesus monkey after 10.5 mins postinjection; assay type: ADME, organism-based, Macaca mulatta; details: in vivo, 0.175 h
Medulla [30] = test: Drug uptake in anesthetized cynomolgus monkey brain medulla after 207.5 mins postinjection; assay type: ADME, organism-based, Macaca fascicularis; details: in vivo
Thalamus [31] = test: Drug uptake in anesthetized cynomolgus monkey brain thalamus after 207.5 mins postinjection; assay type: ADME, organism-based, Macaca fascicularis; details: in vivo
Pons [32] = test: Drug uptake in anesthetized cynomolgus monkey brain pons after 192.5 mins postinjection; assay type: ADME, organism-based, Macaca fascicularis; details: in vivo
[33] = Drug uptake in awake rhesus monkey brain midbrain after 85 mins postinjection; assay type: ADME, organism-based, Macaca mulatta; details: in vivo
Medulla [34] = test: Drug uptake in anesthetized cynomolgus monkey brain medulla after 192.5 mins postinjection; assay type: ADME, organism-based, Macaca fascicularis; details: in vivo
[35] = Drug uptake in awake rhesus monkey brain pons after 7.5 mins postinjection; assay type: ADME, organism-based, Macaca mulatta; details: in vivo, 0.125 h
Putamen [36] = test: Drug uptake in anesthetized cynomolgus monkey brain putamen after 202.5 mins postinjection; assay type: ADME, organism-based, Macaca fascicularis; details: in vivo, 3.375 h
Pons [37] = test: Drug uptake in anesthetized cynomolgus monkey brain pons after 197.5 mins postinjection; assay type: ADME, organism-based, Macaca fascicularis; details: in vivo
Putamen [38] = test: Drug uptake in anesthetized cynomolgus monkey brain putamen after 192.5 mins postinjection; assay type: ADME, organism-based, Macaca fascicularis; details: in vivo
[39] = Drug uptake in awake rhesus monkey brain midbrain after 35 mins postinjection; assay type: ADME, organism-based, Macaca mulatta; details: in vivo
Caudate [40] = test: Drug uptake in anesthetized cynomolgus monkey brain caudate after 197.5 mins postinjection; assay type: ADME, organism-based, Macaca fascicularis, Caudate nucleus; details: in vivo
[41] = Drug uptake in awake rhesus monkey brain midbrain after 105 mins postinjection; assay type: ADME, organism-based, Macaca mulatta; details: in vivo, 1.75 h
[42] = Drug uptake in awake rhesus monkey brain midbrain after 25 mins postinjection; assay type: ADME, organism-based, Macaca mulatta; details: in vivo
[43] = Ratio of drug uptake in midbrain to cerebellum in awake rhesus monkey after 7.5 mins postinjection; assay type: ADME, organism-based, Macaca mulatta; details: in vivo, 0.125 h
[44] = Drug uptake in awake rhesus monkey brain frontal lobe after 65 mins postinjection; assay type: ADME, organism-based, Macaca mulatta; details: in vivo
[45] = Drug uptake in awake rhesus monkey brain putamen after 95 mins postinjection; assay type: ADME, organism-based, Macaca mulatta; details: in vivo
Midbrain [46] = test: Drug uptake in anesthetized cynomolgus monkey brain midbrain after 207.5 mins postinjection; assay type: ADME, organism-based, Macaca fascicularis; details: in vivo
[47] = Drug uptake in awake rhesus monkey brain pons after 65 mins postinjection; assay type: ADME, organism-based, Macaca mulatta; details: in vivo
[48] = Ratio of drug uptake in putamen to cerebellum in awake rhesus monkey after 105 mins postinjection; assay type: ADME, organism-based, Macaca mulatta; details: in vivo, 1.75 h
Pons [49] = test: Drug uptake in anesthetized cynomolgus monkey brain pons after 182.5 mins postinjection; assay type: ADME, organism-based, Macaca fascicularis; details: in vivo
[50] = Ratio of drug uptake in pons to cerebellum in awake rhesus monkey after 7.5 mins postinjection; assay type: ADME, organism-based, Macaca mulatta; details: in vivo, 0.125 h
Midbrain [51] = test: Drug uptake in anesthetized cynomolgus monkey brain midbrain after 182.5 mins postinjection; assay type: ADME, organism-based, Macaca fascicularis; details: in vivo
Medulla [52] = test: Drug uptake in anesthetized cynomolgus monkey brain medulla after 182.5 mins postinjection; assay type: ADME, organism-based, Macaca fascicularis; details: in vivo
Medulla [53] = test: Drug uptake in anesthetized cynomolgus monkey brain medulla after 187.5 mins postinjection; assay type: ADME, organism-based, Macaca fascicularis; details: in vivo, 3.125 h
[54] = Drug uptake in anesthetized cynomolgus monkey brain cerebellum after 192.5 mins postinjection; assay type: ADME, organism-based, Macaca fascicularis; details: in vivo
[55] = Drug uptake in awake rhesus monkey brain medulla after 7.5 mins postinjection; assay type: ADME, organism-based, Macaca mulatta; details: in vivo, 0.125 h
[56] = Drug uptake in awake rhesus monkey brain cerebellum after 10.5 mins postinjection; assay type: ADME, organism-based, Macaca mulatta; details: in vivo, 0.175 h
Thalamus [57] = test: Drug uptake in anesthetized cynomolgus monkey brain thalamus after 202.5 mins postinjection; assay type: ADME, organism-based, Macaca fascicularis; details: in vivo, 3.375 h
Caudate [58] = test: Drug uptake in anesthetized cynomolgus monkey brain caudate after 192.5 mins postinjection; assay type: ADME, organism-based, Macaca fascicularis, Caudate nucleus; details: in vivo
[59] = Drug uptake in awake rhesus monkey brain medulla after 10.5 mins postinjection; assay type: ADME, organism-based, Macaca mulatta; details: in vivo, 0.175 h
Caudate [60] = test: Drug uptake in anesthetized cynomolgus monkey brain caudate after 202.5 mins postinjection; assay type: ADME, organism-based, Macaca fascicularis, Caudate nucleus; details: in vivo, 3.375 h
Putamen [61] = test: Drug uptake in anesthetized cynomolgus monkey brain putamen after 197.5 mins postinjection; assay type: ADME, organism-based, Macaca fascicularis; details: in vivo
Putamen [62] = test: Drug uptake in anesthetized cynomolgus monkey brain putamen after 187.5 mins postinjection; assay type: ADME, organism-based, Macaca fascicularis; details: in vivo, 3.125 h
Caudate [63] = test: Drug uptake in anesthetized cynomolgus monkey brain caudate after 207.5 mins postinjection; assay type: ADME, organism-based, Macaca fascicularis, Caudate nucleus; details: in vivo
[64] = Drug uptake in anesthetized cynomolgus monkey brain frontal lobe after 187.5 mins postinjection; assay type: ADME, organism-based, Macaca fascicularis; details: in vivo, 3.125 h

## O=C(OCC[18F])C1C2CCC(CC1c1cccc(/C=C\I)c1)N2 (stereo not given)
[1]
  Drug uptake: 0.1
[2]
  Drug uptake: 0.16
[3]
  Drug uptake: 0.14
Pons [4]
  Drug uptake: 2.19
Midbrain [5]
  Drug uptake: 3.15
Pons [6]
  Drug uptake: 2.31
[7]
  Drug uptake: 0.15
[8]
  Drug uptake: 0.11
[9]
  Drug uptake: 1.52
[10]
  Drug uptake: 0.11
[11]
  Drug uptake: 0.17
Thalamus [12]
  Drug uptake: 2.65
Caudate [13]
  Drug uptake: 2.31
[14]
  Drug uptake: 0.11
[15]
  Drug uptake: 1.39
[16]
  Drug uptake: 1.43
[17]
  Drug uptake: 0.06
[18]
  Drug uptake: 0.12
Pons [19]
  Drug uptake: 2.25
[20]
  Drug uptake: 0.14
[21]
  Drug uptake: 0.08
[22]
  Drug uptake: 0.11
[23]
  Drug uptake: 0.16
[24]
  Drug uptake: 0.11
[25]
  Ratio: 1
[26]
  Drug uptake: 0.08
Thalamus [27]
  Drug uptake: 2.74
[28]
  Drug uptake: 0.12
[29]
  Ratio: 0.9
Medulla [30]
  Drug uptake: 2.5
Thalamus [31]
  Drug uptake: 2.43
Pons [32]
  Drug uptake: 2.14
[33]
  Drug uptake: 0.16
Medulla [34]
  Drug uptake: 2.52
[35]
  Drug uptake: 0.08
Putamen [36]
  Drug uptake: 2.63
Pons [37]
  Drug uptake: 2.25
Putamen [38]
  Drug uptake: 2.67
[39]
  Drug uptake: 0.14
Caudate [40]
  Drug uptake: 2.24
[41]
  Drug uptake: 0.15
[42]
  Drug uptake: 0.13
[43]
  Ratio: 1.1
[44]
  Drug uptake: 0.11
[45]
  Drug uptake: 0.16
Midbrain [46]
  Drug uptake: 3.17
[47]
  Drug uptake: 0.14
[48]
  Ratio: 1.5
Pons [49]
  Drug uptake: 2.17
[50]
  Ratio: 1
Midbrain [51]
  Drug uptake: 3.4
Medulla [52]
  Drug uptake: 2.68
Medulla [53]
  Drug uptake: 2.64
[54]
  Drug uptake: 1.49
[55]
  Drug uptake: 0.07
[56]
  Drug uptake: 0.08
Thalamus [57]
  Drug uptake: 2.52
Caudate [58]
  Drug uptake: 2.28
[59]
  Drug uptake: 0.09
Caudate [60]
  Drug uptake: 2.21
Putamen [61]
  Drug uptake: 2.63
Putamen [62]
  Drug uptake: 2.77
Caudate [63]
  Drug uptake: 2.16
[64]
  Drug uptake: 1.65

## O=C(OCCC[18F])C1C2CCC(CC1c1cccc(/C=C\Br)c1)N2 (stereo not given)
Pons [4]
  Drug uptake: 3.24
Midbrain [5]
  Drug uptake: 4.46
Pons [6]
  Drug uptake: 3.85
[9]
  Drug uptake: 2.27
Thalamus [12]
  Drug uptake: 3.88
Caudate [13]
  Drug uptake: 3.95
[15]
  Drug uptake: 2.91
[16]
  Drug uptake: 2.13
Pons [19]
  Drug uptake: 3.68
Thalamus [27]
  Drug uptake: 3.94
Medulla [30]
  Drug uptake: 3.58
Thalamus [31]
  Drug uptake: 3.35
Pons [32]
  Drug uptake: 3.48
Medulla [34]
  Drug uptake: 3.98
Putamen [36]
  Drug uptake: 3.82
Pons [37]
  Drug uptake: 3.36
Putamen [38]
  Drug uptake: 3.92
Caudate [40]
  Drug uptake: 3.62
Midbrain [46]
  Drug uptake: 4.46
Pons [49]
  Drug uptake: 3.71
Midbrain [51]
  Drug uptake: 4.79
Medulla [52]
  Drug uptake: 4.22
Medulla [53]
  Drug uptake: 4.04
[54]
  Drug uptake: 2.38
Thalamus [57]
  Drug uptake: 3.84
Caudate [58]
  Drug uptake: 3.75
Caudate [60]
  Drug uptake: 3.64
Putamen [61]
  Drug uptake: 3.78
Putamen [62]
  Drug uptake: 3.87
Caudate [63]
  Drug uptake: 3.41
[64]
  Drug uptake: 2.39
